In ChEMBL document CHEMBL1128669, “The furoxan system as a useful tool for balancing "hybrids" with mixed alpha 1-antagonist and NO-like vasodilator activities” (J Med Chem, 1995):

How the values were obtained:
[1] = target: T1, Alpha-1D adrenergic receptor (Rattus norvegicus, UniProt P23944); assay: Partial affinity towards Alpha-1 adrenergic receptor was assessed on rat aortic strips
T1 sequence (P23944 whole entry): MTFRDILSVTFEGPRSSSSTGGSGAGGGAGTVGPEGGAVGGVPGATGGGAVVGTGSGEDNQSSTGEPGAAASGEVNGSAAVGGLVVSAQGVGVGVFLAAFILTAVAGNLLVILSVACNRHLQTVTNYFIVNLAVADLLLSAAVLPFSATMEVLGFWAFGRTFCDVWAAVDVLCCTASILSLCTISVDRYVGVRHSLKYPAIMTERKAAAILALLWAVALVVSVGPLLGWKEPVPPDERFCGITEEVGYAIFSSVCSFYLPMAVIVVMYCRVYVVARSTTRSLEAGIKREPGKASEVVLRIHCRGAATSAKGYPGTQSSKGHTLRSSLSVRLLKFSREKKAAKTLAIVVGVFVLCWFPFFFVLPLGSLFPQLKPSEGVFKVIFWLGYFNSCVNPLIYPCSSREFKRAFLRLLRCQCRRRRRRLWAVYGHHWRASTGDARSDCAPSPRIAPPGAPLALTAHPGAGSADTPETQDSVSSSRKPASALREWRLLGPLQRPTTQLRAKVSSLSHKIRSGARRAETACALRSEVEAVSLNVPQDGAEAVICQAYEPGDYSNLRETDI

[2] = species: Rattus norvegicus; assay: Inhibition of vasodilating activity was assessed on the epididymal portion of rat vas deferens in the presence of HbO2 in vitro; type: functional
[3] = species: Rattus norvegicus; assay: Inhibition of vasodilating activity was assessed on the epididymal portion of rat vas deferens in the absence of HbO2 in vitro; type: functional, organism-based
[4] = species: Rattus norvegicus; assay: Inhibition of vasodilating activity was assessed on the rat aortic strips in the absence of HbO2 in vitro
[5] = species: Rattus norvegicus; assay: Inhibition of vasodilating activity was assessed on the rat aortic strips in the presence of HbO2 in vitro

SMILES	pA2 [1]	IC50 [2]	IC50 [3]	IC50 [4]	IC50 [5]
COc1cc2nc(N3CCC(S(=O)(=O)c4no[n+]([O-])c4-c4ccccc4)CC3)nc(N)c2cc1OC	8.96	610 nM	52 nM	–	–
COc1cc2nc(N3CCC(S(=O)(=O)c4c(-c5ccccc5)no[n+]4[O-])CC3)nc(N)c2cc1OC	8.49	700 nM	95 nM	–	–
COc1cc2nc(N3CCC(S(=O)(=O)c4nonc4-c4ccccc4)CC3)nc(N)c2cc1OC	9.17	–	–	–	–

Now from value to molecule:

pA2 [1]	IC50 [2]	IC50 [3]	IC50 [4]	IC50 [5]	SMILES
8.25	–	–	2500 nM	–	COc1cc2nc(N3CCN(C(=O)c4no[n+]([O-])c4C(N)=O)CC3)nc(N)c2cc1OC
8.04	–	–	9.7 nM	81 nM	COc1cc2nc(N3CCN(C(=O)c4no[n+]([O-])c4C#N)CC3)nc(N)c2cc1OC
8.55	–	–	630 nM	–	COC(=O)c1c(C(=O)N2CCN(c3nc(N)c4cc(OC)c(OC)cc4n3)CC2)no[n+]1[O-]
